Reference: PMC10326435, “Antiprotozoal activity of natural products from Nigerien plants used in folk medicine” (Frontiers in Pharmacology, 2023)
Where two headings read alike, the source gives them in different places.

What was measured:
P. falciparum = conditions: cited from earlier work
T. cruzi = conditions: read-out: IC50 against T. cruzi, cited from earlier work
Leishmania spp. = tested on: Leishmania spp.; parameters: method as in Rocha et al., 2022; conditions: no significant activity; ref Rocha et al., 2022; read-out: IC50 against Leishmania spp.; cited from earlier work
T. b. rhodesiense = conditions: previously reported; ref Cretton et al., 2015; read-out: IC50 against T. b. rhodesiense; cited from earlier work
cytotoxicity in L6 cells = assay type: cell-based, rat; conditions: rat
Experimental: (§1) The in vitro activity was assessed on T. b. rhodesiense (STIB900, trypomastigotes), T. cruzi (Tulahuen C2C4, intracellular amastigotes), L. donovani (MHOM-ET-67/L82, axenically grown amastigotes), P. falciparum (NF54, intraerythrocytic), and L6 cells (ATCC, CRL-1458™, rat skeletal myoblasts) as previously described ([Bernal et al., 2020]). The activities were determined in serial dilution assays with 72 h compound exposure, respectively 96 h for intracellular T. cruzi. Results are expressed in µg/mL for extracts and in µM for pure compounds. The IC50 values were determined for the compounds only when they were <50 µM.

[1] = tested on: T. b. rhodesiense (STIB900, trypomastigotes); assay: in vitro activity on T. b. rhodesiense, serial dilution assay; assay type: cell-based, Trypanosoma brucei rhodesiense; conditions: for IC50: 72 h exposure, means of two independent assays ± deviation from the mean, read-out: IC50 T. b. rhodesiense; for Selectivity index (SI) T. b. rhodesiense: SI = IC50 cytotoxicity (L6)/IC50 in T. b. rhodesiense
Experimental: as §1

[2] = tested on: P. falciparum (NF54, intraerythrocytic); assay: in vitro activity on P. falciparum, serial dilution assay; assay type: cell-based, Plasmodium falciparum; conditions: for IC50: 72 h exposure, means of two independent assays ± deviation from the mean, read-out: IC50 P. falciparum; for Selectivity index (SI) P. falciparum: SI = IC50 cytotoxicity (L6)/IC50 in P. falciparum
Experimental: as §1

[3] = tested on: L. donovani (MHOM-ET-67/L82, axenically grown amastigotes); assay: in vitro activity on L. donovani, serial dilution assay; assay type: cell-based, Leishmania donovani; conditions: for IC50: axenic amastigotes, 72 h exposure, means of two independent assays ± deviation from the mean, read-out: IC50 L. donovani; for Selectivity index (SI) L. donovani: SI = IC50 cytotoxicity (L6)/IC50 in L. donovani
Experimental: as §1

[4] = tested on: T. cruzi (Tulahuen C2C4, intracellular amastigotes); assay: in vitro activity on T. cruzi, serial dilution assay; assay type: cell-based, Trypanosoma cruzi; conditions: for IC50: 96 h exposure, means of two independent assays ± deviation from the mean, read-out: IC50 T. cruzi; for Selectivity index (SI) T. cruzi: SI = IC50 cytotoxicity (L6)/IC50 in T. cruzi
Experimental: as §1

[5] = tested on: intracellular L. donovani amastigotes in mouse macrophages; assay: intracellular L. donovani amastigotes in mouse macrophages; assay type: cell-based, Leishmania donovani; conditions: not active, read-out: IC50 against intracellular L. donovani amastigotes
Excerpt: The antiparasitic activity of myricitrin (1) and quercitrin (2) was already described in the literature ([Muzitano et al., 2006]; [Larit et al., 2021]), and therefore it was not evaluated in the present study. Compound 3 was the only compound evaluated from the extract of C. sieberiana and was compared to the activity of miltefosine due to structural similarities. […] Among the cyclopeptide alkaloids isolated from the DCM extract of Z. mauritiana (4, 5, 7–12), a methoxy group at C-13 (10–12) seems to be favorable for the antiplasmodial activity. In addition, the indole group at C-29 present in compounds 9 and 12 seems to be important for the activity against T. b. rhodesiense. […] This is the first report on the antileishmanial and antitrypanosomal activities of these compounds. […] This is in agreement with our study. Among the triterpene derivatives isolated from the DCM root bark extract of Z. mauritiana (6, 13–19), betulinic acid (19), an already well-studied compound, was not tested in this work. […] The triterpenoids tested in the present work (Table 3) were mainly active against L. donovani and presented a good selectivity index. The substitution with an epoxy group in compound 13 compared to compound 6 enhanced the activity toward L. donovani and P. falciparum but not against T. cruzi. […]

[6] = tested on: L6 cells (ATCC, CRL-1458, rat skeletal myoblasts); assay: cytotoxicity in L6 cells; assay type: cell-based; conditions: rat, 72 h
Experimental: as §1

L. amazonensis = tested on: L. amazonensis; parameters: method as in Costa et al., 2018; conditions: ref Costa et al., 2018; read-out: IC50 against L. amazonensis; cited from earlier work
[7] = already reported, ref Suksamrarn et al., 2006, Panseeta et al., 2011, Tuenter et al., 2017, read-out: antiplasmodial activity IC50
[8] = Plasmodium falciparum, NF54, 72 h
[9] = Trypanosoma cruzi, TULAHUEN, 96 h

SMILES | IC50 at 72 h (cytotoxicity in L6 cells; IC50 Cytotoxicity) [µM] | IC50 (P. falciparum; [7]) [µM] | IC50 ([1]; Trypanosoma brucei, 72 h) [µM] | IC50 [2, 8] [µM] | Selectivity index (SI) P. falciparum [2] | IC50 ([3]; Leishmania donovani, 72 h) [µM] | Selectivity index (SI) L. donovani [3] | IC50 [4, 9] [µM] | Selectivity index (SI) T. b. rhodesiense [1] | other results
C=C(C)[C@@H]1CC[C@]2(C(=O)O)CC[C@]3(C)[C@H](CC[C@@H]4[C@@]5(C)CC[C@H](O)C(C)(C)[C@@H]5CC[C@]43C)[C@@H]12 [Compound 19, betulinic acid] |  |  |  |  |  |  |  |  |  | IC50 (P. falciparum; previously reported, ref Cretton et al., 2015, read-out: IC50 against P. falciparum): 19 µM; IC50 (T. cruzi; no significant activity, ref Rocha et al., 2022): > 25 µM; IC50 (Leishmania spp.): > 25 µM; IC50 (T. b. rhodesiense): 4.2 µM
CN[C@H](C)C(=O)N[C@H](C(=O)N1CC[C@@H]2Oc3ccc(OC)c(c3)/C=C\NC(=O)[C@H](Cc3ccccc3)NC(=O)[C@H]21)C(C)C [Compound 11, N-demethylamphibine H] | > 50 | 3.6 | > 50 | 14.7 ± 4.2 | > 5.4 | 44.8 ± 3.4 | > 1.5 | > 50 |  | 
C=C(C)C1CCC2(C(=O)O)CCC3(C)C(CCC4C5(C)C(C(=O)O)C(OC(=O)c6ccccc6)C(C)(C)C5CCC43C)C12 [Compound 15, (1R, 3S)-3-O-benzoyl ceanothic acid] | 16.4 ± 5.8 |  |  | 10.1 ± 0.6 | 1.6 |  | 32.8 | 43.8 ± 8.4 | 1.4 | IC50 [1]: 11.7 ± 1 µM; IC50 ([5]; Leishmania donovani, Macrophage): > 50 µM; IC50 [3]: 0.5 ± 0.2 µM; Selectivity index (SI) T. cruzi [4]: 0.4
CN[C@@H](C)C(=O)N[C@H](C(=O)N1CC[C@@H]2Oc3ccc(cc3)/C=C\NC(=O)[C@H](Cc3ccccc3)NC(=O)[C@H]21)C(C)C [Compound 4, mauritine F] | > 50 | 34.2 | > 50 | 24.3 ± 4.5 | > 5.5 | > 50 |  | > 50 |  | 
CCC(C)[C@@H]1NC(=O)[C@@H]2[C@H](CCN2C(=O)[C@H](Cc2c[nH]c3ccccc23)NC(=O)[C@H](CC(C)C)NC)Oc2ccc(OC)c(c2)/C=C\NC1=O (stereo partly drawn) [Compound 12, mauritine M] | 31.8 ± 7.6 | 3.7 | 6.4 ± 2 | 2.6 ± 0.2 | 12.2 | > 50 |  | 15.7 ± 1.1 | 5.0 | Selectivity index (SI) T. cruzi [4]: 2.0
C=C(C)[C@@H]1CC[C@]2(C(=O)O)CC[C@]3(C)[C@H](CC[C@@H]4[C@@]5(C)[C@@H](C(=O)O)[C@H](O)C(C)(C)[C@@H]5CC[C@]43C)[C@@H]12 [Compound 6, ceanothic acid] | > 50 | > 20 | > 50 | > 50 |  | 29 ± 3.3 | > 1.7 | > 50 |  | 
C=C(C)C1CCC2(C(=O)O)CCC3(C)C(CCC4C5(C)C(C(=O)O)C(OC(=O)c6ccccc6)C(C)(C)C5CCC43C)C12 [Compound 16, (1S, 3S)-3-O-benzoyl ceanothic acid] |  |  |  |  | 2.1 |  | 17.9 |  | 1.1 | IC50 [6]: 32.3 ± 5.1 µM; IC50 [1]: 30.6 ± 2.8 µM; IC50 [5]: > 50 µM; IC50 [2]: 15.3 ± 1.5 µM; IC50 [3]: 1.8 ± 0.7 µM; IC50 [4]: > 50 µM
CC1(C)C=CC2=C(O1)C(=O)c1c(O)ccc(O[C@@H]3O[C@H](CO)[C@@H](O)[C@H](O)[C@H]3O)c1C2=O [Compound 29] |  |  | 12.5 ± 1.6 | > 50 |  | 11.4 ± 2.3 | 3.5 | > 50 | 3.2 | IC50 at 72 h (cytotoxicity in L6 cells; L6 cells (rat skeletal myoblasts, ATCC CRL-1458), rat skeletal myoblast (L6 cells), 72 h exposure, means of two independent assays ± deviation from the mean, read-out: IC50 Cytotoxicity): 40.3 ± 0.7 µM; IC50 (L. amazonensis): 12.6 µM; IC50 (T. cruzi; ref Costa et al., 2018): 7.6 µM
